{"source": "patent US20220133688A1", "about": "“MACROCYCLIC LACTONE ANTHELMINTICS AGAINST NEMATODES” (Bayer Animal Health GmbH, priority 2019, published 2022)", "key": {"[1]": {"system": "D. immitis Mf, Yazoo-2013 strain (resistant)", "assay": "Cell attachment assay (canine PMN or PBMC attachment to Mf), Yazoo-2013 isolate", "assay_type": "cell-based, Dirofilaria immitis"}, "[2]": {"system": "D. immitis Mf, Metairie-2014 strain (resistant)", "assay": "Cell attachment assay (canine PMN or PBMC attachment to Mf), Metairie-2014 isolate", "assay_type": "cell-based, Dirofilaria immitis", "settings": "for lowest drug concentration at which a statistically significant increase (p = <0.05) in cell attachment was observed compared to the no-drug control: 2-way ANOVA"}}, "note": "“And” between values parts separate entries of the source, which are not always exact repeats. Equal values may be shown once. Read-outs that look alike come from different tables or passages of the source."}
{"smiles": "CO/N=C1\\C[C@]2(C[C@@H]3C[C@@H](C/C=C(\\C)C[C@@H](C)/C=C/C=C4\\CO[C@@H]5[C@H](O)C(C)=C[C@@H](C(=O)O3)[C@]45O)O2)O[C@H](/C(C)=C/C(C)C)[C@H]1C", "note": "[MOX, moxidectin]", "values": [{"measurement": "Percentage (±SEM) of Mf with cells attached", "setting": "[1]; PBMC, 1 μM drug, Yazoo-2013 Mf", "result": "19 ± 3", "unit": "%"}, {"measurement": "lowest drug concentration at which a statistically significant increase (p = <0.05) in cell attachment was observed compared to the no-drug control", "setting": "[1]; PBMC, 40 h, Yazoo-2013 Mf, 2-way ANOVA", "result": 10, "unit": "nM"}, {"measurement": "Percentage (±SEM) of Mf with cells attached", "setting": "[1]; PMN, 1 μM drug, Yazoo-2013 Mf", "result": "28 ± 5", "unit": "%"}, {"measurement": "lowest drug concentration at which a statistically significant increase (p = <0.05) in cell attachment was observed compared to the no-drug control", "setting": "[1]; PMN, 24 h, Yazoo-2013 Mf, 2-way ANOVA", "result": 3, "unit": "nM"}, {"measurement": "drug concentration causing a significant increase in cell attachment", "setting": "[1]; PMNs and PBMCs, Yazoo-2013 Mf", "result": "3 to 10", "unit": "nM"}, {"measurement": "Percentage (±SEM) of Mf with cells attached", "setting": "[2]; PBMC, 1 μM drug, Metairie-2014 Mf", "result": "49 ± 8", "unit": "%"}, {"measurement": "lowest drug concentration at which a statistically significant increase (p = <0.05) in cell attachment was observed compared to the no-drug control", "setting": "[2]; PBMC, 40 h, Metairie-2014 Mf", "result": 1, "unit": "nM"}, {"measurement": "Percentage (±SEM) of Mf with cells attached", "setting": "[2]; PMN, 1 μM drug, Metairie-2014 Mf", "result": "42 ± 6", "unit": "%"}, {"measurement": "lowest drug concentration at which a statistically significant increase (p = <0.05) in cell attachment was observed compared to the no-drug control", "setting": "[2]; PMN, 24 h, Metairie-2014 Mf", "result": 10, "unit": "nM"}]}
{"smiles": "CC[C@H](C)[C@H]1O[C@]2(CC[C@@H]1C)C[C@@H]1C[C@@H](C/C=C(\\C)[C@@H](O[C@H]3C[C@H](OC)[C@@H](O[C@H]4C[C@H](OC)[C@@H](O)[C@H](C)O4)[C@H](C)O3)[C@@H](C)/C=C/C=C3\\CO[C@@H]4[C@H](O)C(C)=C[C@@H](C(=O)O1)[C@]34O)O2", "note": "[IVM, ivermectin]", "values": [{"measurement": "Percentage (±SEM) of Mf with cells attached", "setting": "[1]", "result": "25 ± 5% and 18 ± 4%"}, {"measurement": "drug concentration causing a significant increase in cell attachment", "setting": "[1]", "result": "100 to 300", "unit": "nM"}, {"measurement": "lowest drug concentration at which a statistically significant increase (p = <0.05) in cell attachment was observed compared to the no-drug control", "setting": "[1]", "result": 100, "unit": "nM"}, {"measurement": "Percentage (±SEM) of Mf with cells attached", "setting": "[2]", "result": "13% and 10% and 13 ± 3% and 10 ± 2%"}, {"measurement": "drug concentration required for a significant increase in cell attachment", "setting": "[2]", "result": "≥ 1", "unit": "µM"}, {"measurement": "increase in attachment of PBMCs at any concentration", "setting": "[2]", "result": "no significant increase"}]}
